Some results are limits rather than exact numbers.

T1 sequence (P98170 248-358 limits assumed, species assumed): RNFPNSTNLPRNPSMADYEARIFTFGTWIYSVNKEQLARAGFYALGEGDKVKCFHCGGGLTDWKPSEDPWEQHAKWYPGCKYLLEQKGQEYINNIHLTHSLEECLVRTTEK

The first assay concerns the target T1, XIAP (Homo sapiens, UniProt P98170).
T1 construct: GST
The assay can be described thus: Disruption of the Smac peptide-(XIAP)BIR3 protein-protein interaction (Tables 2 and 3). The class given is binding. As to conditions: Series A compounds, Table 2; read-out: XIAP IC50. The procedure: IC50 values for Series A compounds for XIAP. An assay capable of measuring disruption of the Smac peptide-(XIAP)BIR3 protein-protein interaction is established in the art as described in Example 2. In this assay IAP Inhibitor compounds compete with an immobilized Smac peptide for occupancy of the BIR3 binding pocket of XIAP. The rationale for this strategy results from the mutually exclusive nature of either Caspase 9 or Smac binding to the BIR3 pocket.
Assays are performed and IC50 values are calculated as follows: […]
IC50 values are calculated by logarithmic regression analysis of the percentage inhibition of each compound at 4 concentrations (usually 3- or 10-fold dilution series starting at 10 μM). In each experiment, the actual inhibition by reference compound is used for normalization of IC50 values to the basis of an average value of the reference inhibitor: Normalized IC50=measured IC50 average ref. IC50/measured ref. IC50
Activity determinations of compounds herein using the testing method described herein and as are well known in the art, are used with the following test compounds of formula (I). […] “Activity” as used herein is defined as having IC50 values for IAP target inhibition of less than 10 μM. Specifically, in the table:
IC50 values for Series B compounds are provided for XIAP. Assays are performed as described above using methods well known in the art.
What is called IC50 is the midpoint of a concentration-inhibition curve. For the compound `CN[C@@H](C)C(=O)N[C@H](C(=O)N1CCN(CCC(C)(C)C)C[C@H]1C(=O)NC1CCCc2ccccc21)C(C)C` (stereo partly drawn) [Compound 21, (S)-4-(3,3-Dimethyl-butyl)-1-[(S)-3-methyl-2-((S)-2-methylamino-propionylamino)-butyryl]-piperazine-2-carboxylic acid (1,2,3,4-tetrahydro-naphthalen-1-yl)-amide], the 50% inhibitory concentration (IC50) is under 10 µM.

Consider `CN[C@@H](C)C(=O)N[C@H](C(=O)N1CCN(S(=O)(=O)c2ccc(F)cc2)C[C@H]1C(=O)NC1CCCc2ccccc21)C(C)C` (stereo partly drawn) [Compound 35, (S)-4-(4-Fluoro-benzenesulfonyl)-1-[(S)-3-methyl-2-((S)-2-methylamino-propionylamino)-butyryl]-piperazine-2-carboxylic acid (1,2,3,4-tetrahydro-naphthalen-1-yl)-amide], for which the IC50 was under 10 µM.

For the compound `CN[C@@H](C)C(=O)N[C@H](C(=O)N1CCN(S(=O)(=O)CCC(F)(F)F)C[C@H]1C(=O)NC1CCCc2ccccc21)C(C)C` (stereo partly drawn) [Compound 26, (S)-1-[(S)-3-Methyl-2-((S)-2-methylamino-propionylamino)-butyryl]-4-(3,3,3-trifluoro-propane-1-sulfonyl)-piperazine-2-carboxylic acid (1,2,3,4-tetrahydro-naphthalen-1-yl)-amide], the IC50 is under 10 µM.

For the compound “4-Benzyl-1-[3-methyl-2-(2-methylamino-propionylamino)-butyryl]-piperazine-2-carboxylic acid (1,2,3,4-tetrahydro-naphthalen-1-yl)-amide [Compound 1]”, the IC50 is under 10 µM.

For `CNC(C)C(=O)NC(C(=O)N1CCN(S(=O)(=O)c2ccccc2)CC1C(=O)NC1CCCc2ccccc21)C(C)C` (centres unmarked) [Compound 2, 4-Benzenesulfonyl-1-[3-methyl-2-(2-methylamino-propionylamino)-butyryl]-piperazine-2-carboxylic acid (1,2,3,4-tetrahydro-naphthalen-1-yl)-amide], the IC50 is under 10 µM.

As for `CN[C@@H](C)C(=O)N[C@H](C(=O)N1CCN(C(=O)NC(C)(C)C)C[C@H]1C(=O)NC1CCCc2ccccc21)C(C)C` (stereo partly drawn) [Compound 39, (S)-4-[(S)-3-Methyl-2-((S)-2-methylamino-propionylamino)-butyryl]-piperazine-1,3-dicarboxylic acid 1-tert-butylamide 3-[(1,2,3,4-tetrahydro-naphthalen-1-yl)-amide]], the IC50 is under 10 µM.

For `CN[C@@H](C)C(=O)N[C@H](C(=O)N1CCN(Cc2ccccc2)C[C@H]1C(=O)NC1CCCc2ccccc21)C1CCCCC1` (stereo partly drawn) [Compound 55, (S)-4-Benzyl-1-[(S)-2-cyclohexyl-2-((S)-2-methylamino-propionylamino)-acetyl]-piperazine-2-carboxylic acid (1,2,3,4-tetrahydro-naphthalen-1-yl)-amide], the IC50 was under 10 µM.

For `CN[C@@H](C)C(=O)N[C@H](C(=O)N1CCN(Cc2ccc(C#N)cc2)C[C@H]1C(=O)NC1CCCc2ccccc21)C(C)C` (stereo partly drawn) [Compound 43, (S)-4-(4-Cyano-benzyl)-1-[(S)-3-methyl-2-((S)-2-methylamino-propionylamino)-butyryl]-piperazine-2-carboxylic acid (1,2,3,4-tetrahydro-naphthalen-1-yl)-amide], the IC50 was under 10 µM.

As for `CN[C@@H](C)C(=O)N[C@H](C(=O)N1CCN(Cc2cccnc2)C[C@H]1C(=O)NC1CCCc2ccccc21)C(C)C` (stereo partly drawn) [Compound 3, (S)-1-[(S)-3-Methyl-2-((S)-2-methylamino-propionylamino)-butyryl]-4-pyridin-3-ylmethyl-piperazine-2-carboxylic acid (1,2,3,4-tetrahydro-naphthalen-1-yl)-amide], the IC50 is under 10 µM.

On to `CN[C@@H](C)C(=O)N[C@H](C(=O)N1CCN(CC(C)C)C[C@H]1C(=O)NC1CCCc2ccccc21)C(C)C` (stereo partly drawn) [Compound 8, (S)-4-Isobutyl-1-[(S)-3-methyl-2-((S)-2-methylamino-propionylamino)-butyryl]-piperazine-2-carboxylic acid (1,2,3,4-tetrahydro-naphthalen-1-yl)-amide], for which the IC50 is under 10 µM.

Consider `CN[C@@H](C)C(=O)N[C@H](C(=O)N1CCN(C(=O)Nc2ccccc2)C[C@H]1C(=O)NC1CCCc2ccccc21)C(C)C` (stereo partly drawn) [Compound 41, (S)-4-[(S)-3-Methyl-2-((S)-2-methylamino-propionylamino)-butyryl]-piperazine-1,3-dicarboxylic acid 1-phenylamide 3-[(1,2,3,4-tetrahydro-naphthalen-1-yl)-amide]], for which the IC50 is under 10 µM.

As to `CN[C@@H](C)C(=O)N[C@H](C(=O)N1CCNC[C@H]1C(=O)NC1CCCc2ccccc21)C(C)C` (stereo partly drawn) [Compound 56, (S)-1-[(S)-3-Methyl-2-((S)-2-methylamino-propionylamino)-butyryl]-piperazine-2-carboxylic acid (1,2,3,4-tetrahydro-naphthalen-1-yl)-amide], the IC50 was under 10 µM.

With `CN[C@@H](C)C(=O)N[C@H](C(=O)N1CCN(CC2CC2)C[C@H]1C(=O)NC1CCCc2ccccc21)C(C)C` (stereo partly drawn) [Compound 36, (S)-4-Cyclopropylmethyl-1-[(S)-3-methyl-2-((S)-2-methylamino-propionylamino)-butyryl]-piperazine-2-carboxylic acid (1,2,3,4-tetrahydro-naphthalen-1-yl)-amide], the IC50 was under 10 µM.

In the case of `CN[C@@H](C)C(=O)N[C@H](C(=O)N1CCN(C(=O)OCC(C)C)C[C@H]1C(=O)NC1CCCc2ccccc21)C(C)C` (stereo partly drawn) [Compound 31, (S)-4-[(S)-3-Methyl-2-((S)-2-methylamino-propionylamino)-butyryl]-3-(1,2,3,4-tetrahydro-naphthalen-1-ylcarbamoyl)-piperazine-1-carboxylic acid isobutyl ester], the IC50 is under 10 µM.

As for `CN[C@@H](C)C(=O)N[C@H](C(=O)N1CCN(CCc2ccccc2)C[C@H]1C(=O)NC1CCCc2ccccc21)C(C)C` (stereo partly drawn) [Compound 46, (S)-1-[(S)-3-Methyl-2-((S)-2-methylamino-propionylamino)-butyryl]-4-phenethyl-piperazine-2-carboxylic acid (1,2,3,4-tetrahydro-naphthalen-1-yl)-amide], the IC50 was under 10 µM.

In the case of `CN[C@@H](C)C(=O)N[C@H](C(=O)N1CCN(Cc2ccncc2)C[C@H]1C(=O)NC1CCCc2ccccc21)C(C)C` (stereo partly drawn) [Compound 9, (S)-1-[(S)-3-Methyl-2-((S)-2-methylamino-propionylamino)-butyryl]-4-pyridin-4-ylmethyl-piperazine-2-carboxylic acid (1,2,3,4-tetrahydro-naphthalen-1-yl)-amide], the IC50 is under 10 µM.

With `CN[C@@H](C)C(=O)N[C@H](C(=O)N1CCN(Cc2cccc(OC)c2)C[C@H]1C(=O)NC1CCCc2ccccc21)C(C)C` (stereo partly drawn) [Compound 29, (S)-4-(3-Methoxy-benzyl)-1-[(S)-3-methyl-2-((S)-2-methylamino-propionylamino)-butyryl]-piperazine-2-carboxylic acid (1,2,3,4-tetrahydro-naphthalen-1-yl)-amide], the IC50 is under 10 µM.

In the case of `CN[C@@H](C)C(=O)N[C@H](C(=O)N1CCN(C(=O)N2CCCC2)C[C@H]1C(=O)NC1CCCc2ccccc21)C(C)C` (stereo partly drawn) [Compound 47, (S)-1-[(S)-3-Methyl-2-((S)-2-methylamino-propionylamino)-butyryl]-4-(pyrrolidine-1-carbonyl)-piperazine-2-carboxylic acid (1,2,3,4-tetrahydro-naphthalen-1-yl)-amide], the IC50 was under 10 µM.

The assay is the same for the next values; noted with them: Series B compounds, Table 3; read-out: XIXP IC50.
Take `CN[C@@H](C)C(=O)N[C@H](C(=O)N1CCN(Cc2ccccc2)C[C@H]1C(=O)NCCc1ccccc1F)C(C)C` [Compound 67, (S)-4-Benzyl-1-[(S)-3-methyl-2-((S)-2-methylamino-propionylamino)-butyryl]-piperazine-2-carboxylic acid [2-(2-fluoro-phenyl)-ethyl]-amide]: the IC50 was under 10 µM.

Turning to `CN[C@@H](C)C(=O)N[C@H](C(=O)N1CCN(Cc2ccccc2)C[C@H]1C(=O)NCCc1cccnc1)C(C)C` [Compound 66, (S)-4-Benzyl-1-[(S)-3-methyl-2-((S)-2-methylamino-propionylamino)-butyryl]-piperazine-2-carboxylic acid (2-pyridin-3-yl-ethyl)-amide], the IC50 was over 10 µM.

Take `CN[C@@H](C)C(=O)N[C@H](C(=O)N1CCN(Cc2ccccc2)C[C@H]1C(=O)N1CCc2ccccc2C1)C(C)C` [Compound 86, (S)-N-{(S)-1-[(S)-4-Benzyl-2-(3,4-dihydro-1H-isoquinoline-2-carbonyl)-piperazine-1-carbonyl]-2-methyl-propyl}-2-methylamino-propionamide]: the IC50 is under 10 µM.

For `CN[C@@H](C)C(=O)N[C@H](C(=O)N1CCN(Cc2ccccc2)C[C@H]1C(=O)NCCc1ccc(F)cc1)C(C)C` [Compound 71, (S)-4-Benzyl-1-[(S)-3-methyl-2-((S)-2-methylamino-propionylamino)-butyryl]-piperazine-2-carboxylic acid [2-(4-fluoro-phenyl)-ethyl]-amide], the IC50 was under 10 µM.

`CN[C@@H](C)C(=O)N[C@H](C(=O)N1CCN(Cc2ccccc2)C[C@H]1C(=O)NCC1CCCC1)C(C)C` [Compound 81, (S)-4-Benzyl-1-[(S)-3-methyl-2-((S)-2-methylamino-propionylamino)-butyryl]-piperazine-2-carboxylic acid cyclopentylmethyl-amide]: the IC50 is under 10 µM.

Source of the values: patent publication US7932255B2, “2-aminocarbonyl substituted piperazine or diaza-cyclic compounds as apoptosis protein inhibitors (lap) modulators” (Novartis AG, priority 2006, dated 2011).
